Measurements taken from patent publication US20100022483A1, “Substituted Tetracycline Compounds” (Paratek Pharmaceuticals, Inc., priority 2008, published 2010).
Converted amounts (≈) assume the structure as drawn. Like-named read-outs stand apart in the source and are kept apart here.

Key:
gram positive bacteria = experiment: In vitro anti-bacterial activity assay (broth dilution MIC), gram positive bacteria; assay type: cell-based, S. aureus; details: 18 h
How it was run: (§1)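 Broth dilution MIC following CLSI M7-A2: compounds serially diluted, log-phase test strains added to final ~5×10^5 CFU/ml, incubated ~18 hours at 35° C in ambient air. Plates read on microplate reader or visually; MIC is lowest concentration inhibiting growth.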

gram negative bacteria = experiment: In vitro anti-bacterial activity assay (broth dilution MIC), gram negative bacteria; assay type: cell-based, E. coli
How it was run: as §1

[1] = Mammalian cytotoxicity assay (resazurin), COS-1 cells; assay type: cell-based; details: African green monkey, read-out: Cytotox. COS-1
How it was run: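 Resazurin read-out (0.042 mg/ml, 2 h at 37° C. then 30 min dark, room temperature; fluorescence 535/590 nm) follows 24-hour compound exposure of overnight-seeded cells, serially diluted. IC50 is the concentration giving 50% growth inhibition.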

in vitro = assay type: cell-based; details: Chinese hamster, Cytotox. CHO-K1
3T3 fibroblast cells = experiment: In vitro phototoxicity assay (neutral red; UV light-treated vs dark control plates); assay type: cell-based; details: for Photo Toxicity UV Tox50: UV light 50 minutes; for Photo Toxicity Dark Tox50: dark control plate
How it was run: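 Neutral red viability readout (A535 after EtOH/acetic acid extraction) compares paired plates: one exposed 50 min to UV at 1.6–1.8 mW/cm^2, one held in darkness, both dosed with compound in HBSS and recovered overnight. 3T3 fibroblast cells used; phototoxicity taken as the difference.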

[2] = Staphylococcus aureus, S. aureus MRSA5, read-out: Median MIC's G+ S. aureus MRSA5
[3] = Staphylococcus aureus, S. aureus RN450, read-out: Median MIC's G+ S. aureus RN450
[4] = Streptococcus pneumoniae, S. pneumoniae 157E-Strep, read-out: Median MIC's G+ S. pneumoniae 157E-Strep
[5] = Escherichia coli, 18 h, E. coli D1 209, read-out: Median MIC's G− E. coli D1 209
[6] = Escherichia coli, 18 h, E. coli MG 1655, read-out: Median MIC's G− E. coli MG 1655
[7] = Escherichia coli, ATCC25922, 18 h, E. coli ATCC 25922, read-out: Median MIC's G− E. coli ATCC 25922
[8] = Pseudomonas aeruginosa, 18 h, P. aeruginosa K201 PAO6609, read-out: Median MIC's G− P. aeruginosa K201 PAO6609
[9] = Escherichia coli, 18 h, read-out: Median MIC's G− E. coli D1 209, E. coli D1 209
[10] = Escherichia coli, 18 h, read-out: Median MIC's G− E. coli MG 1655, E. coli MG 1655
[11] = Escherichia coli, ATCC25922, 18 h, read-out: Median MIC's G− E. coli ATCC 25922, E. coli ATCC 25922
[12] = Pseudomonas aeruginosa, 18 h, read-out: Median MIC's G− P. aeruginosa K201 PAO6609, P. aeruginosa K201 PAO6609

Row | SMILES | MIC (gram positive bacteria; [2]) [µg/mL] | MIC (gram positive bacteria; [3]) [µg/mL] | MIC (gram positive bacteria; [4]) [µg/mL] | MIC (gram negative bacteria; [5]) [µg/mL] | MIC (gram negative bacteria; [6]) [µg/mL] | MIC (gram negative bacteria; [7]) [µg/mL] | MIC (gram negative bacteria; [8]) [µg/mL] | IC50 at 24 h [1] [µM] | IC50 at 24 h (in vitro) [µM] | Photo Toxicity UV Tox50 (3T3 fibroblast cells) [µM] | Photo Toxicity Dark Tox50 (3T3 fibroblast cells) [µM] | MIC (gram positive bacteria; Staphylococcus aureus, read-out: Median MIC's G+ S. aureus MRSA5) [µg/mL] | MIC (gram positive bacteria; Staphylococcus aureus, read-out: Median MIC's G+ S. aureus RN450) [µg/mL] | MIC (gram positive bacteria; Streptococcus pneumoniae, read-out: Median MIC's G+ S. pneumoniae 157E-Strep) [µg/mL] | MIC (gram negative bacteria; [9]) [µg/mL] | MIC (gram negative bacteria; [10]) [µg/mL] | MIC (gram negative bacteria; [11]) [µg/mL] | MIC (gram negative bacteria; [12]) [µg/mL]
1 | CN(C)CCCc1cccc(-c2ccc(O)c3c2C[C@H]2C[C@H]4[C@H](N(C)C)C(O)=C(C(N)=O)C(=O)[C@@]4(O)C(O)=C2C3=O)c1 [DJ] | 4 (≈ 6.95 µM) | 0.0625 (≈ 0.109 µM) | 0.06 (≈ 0.104 µM) | 2 (≈ 3.47 µM) | 8 (≈ 13.9 µM) | 2 (≈ 3.47 µM) | 64 (≈ 111 µM) | 141 | 119 | >200 | >200 | – | – | – | – | – | – | –
2 | CN1CCN(Cc2cccc(-c3ccc(O)c4c3C[C@H]3C[C@H]5[C@H](N(C)C)C(O)=C(C(N)=O)C(=O)[C@@]5(O)C(O)=C3C4=O)c2)CC1 [DK] | 4 (≈ 6.64 µM) | 0.0625 (≈ 0.104 µM) | 0.06 (≈ 0.0996 µM) | 2 (≈ 3.32 µM) | 4 (≈ 6.64 µM) | 1 (≈ 1.66 µM) | 64 (≈ 106 µM) | > 200 | 92.3 | >200 | >200 | – | – | – | – | – | – | –
3 | CN1CCN(C(=O)c2cccc(-c3ccc(O)c4c3C[C@H]3C[C@H]5[C@@H](N(C)C)C(O)=C(C(N)=O)C(=O)[C@@]5(O)C(O)=C3C4=O)c2)CC1 [D] | 64 (≈ 104 µM) | 32 (≈ 51.9 µM) | 4 (≈ 6.49 µM) | 64 (≈ 104 µM) | 64 (≈ 104 µM) | 64 (≈ 104 µM) | 64 (≈ 104 µM) | > 131 | > 131 | >130.51 | >130.51 | – | – | – | – | – | – | –
4 | CCN(CC)CCNC(=O)c1cccc(-c2ccc(O)c3c2C[C@H]2C[C@H]4[C@H](N(C)C)C(O)=C(C(N)=O)C(=O)[C@@]4(O)C(O)=C2C3=O)c1 [E, (4S,4aS,5aR,12aS)-7-[3-(2-Diethylamino-ethylcarbamoyl)-phenyl]-4-dimethylamino-3,10,12,12a-tetrahydroxy-1,1′-dioxo-1,4,4a,5,5a,6,11,12a-octahydro-naphthacene-2-carboxylic acid amide] | 16 (≈ 25.3 µM) | 0.5 (≈ 0.79 µM) | 0.125 (≈ 0.198 µM) | 64 (≈ 101 µM) | 8 (≈ 12.6 µM) | 8 (≈ 12.6 µM) | 64 (≈ 101 µM) | > 139 | > 139 | >138.88 | >138.88 | – | – | – | – | – | – | –
5 | CCCCNC(=O)c1cccc(-c2ccc(O)c3c2C[C@H]2C[C@H]4[C@H](N(C)C)C(O)=C(C(N)=O)C(=O)[C@@]4(O)C(O)=C2C3=O)c1 [F] | – | – | – | 64 (≈ 109 µM) | 64 (≈ 109 µM) | 64 (≈ 109 µM) | 64 (≈ 109 µM) | 15.2 | > 15.2 | >151.73 | >151.73 | 1 (≈ 1.7 µM) | 0.06 (≈ 0.102 µM) | 0.06 (≈ 0.102 µM) | – | – | – | –
6 | CN(C)[C@@H]1C(O)=C(C(N)=O)C(=O)[C@@]2(O)C(O)=C3C(=O)c4c(O)ccc(-c5cnc6ccccc6c5)c4C[C@H]3C[C@@H]12 [G] | 0.5 (≈ 0.923 µM) | 0.06 (≈ 0.111 µM) | 0.06 (≈ 0.111 µM) | 64 (≈ 118 µM) | 64 (≈ 118 µM) | 4 (≈ 7.39 µM) | 64 (≈ 118 µM) | 15.9 | 14.8 | 19.29 | >159.48 | – | – | – | – | – | – | –
7 | CN(C)[C@H]1C(O)=C(C(N)=O)C(=O)[C@@]2(O)C(O)=C3C(=O)c4c(O)ccc(-c5cnc6ccccc6c5)c4C[C@H]3C[C@@H]12 [H] | 2 (≈ 3.69 µM) | 0.5 (≈ 0.923 µM) | 0.25 (≈ 0.462 µM) | 64 (≈ 118 µM) | 64 (≈ 118 µM) | 64 (≈ 118 µM) | 64 (≈ 118 µM) | > 15.9 | > 15.9 | >159.48 | >159.48 | – | – | – | – | – | – | –
8 | CCOC(=O)CCNC(=O)c1cccc(-c2ccc(O)c3c2C[C@H]2C[C@H]4[C@H](N(C)C)C(O)=C(C(N)=O)C(=O)[C@@]4(O)C(O)=C2C3=O)c1 [I, 3-[3-((6aS,10S,10aS,11aR)-8-Carbamoyl-10-dimethylamino-4,6,6a,9-tetrahydroxy-5,7-dioxo-5,6a,7,10,10a,11,11a,12-octahydro-naphthacen-1-yl)-benzoylamino]-propionic acid ethyl ester] | 2 (≈ 3.16 µM) | 0.06 (≈ 0.0947 µM) | 3 (≈ 4.73 µM) | – | – | – | – | > 14.2 | > 14.2 | >141.76 | >141.76 | – | – | – | 64 (≈ 101 µM) | 64 (≈ 101 µM) | 64 (≈ 101 µM) | 64 (≈ 101 µM)
9 | CN(C)CC(=O)Nc1cccc(-c2ccc(O)c3c2C[C@H]2C[C@H]4[C@H](N(C)C)C(O)=C(C(N)=O)C(=O)[C@@]4(O)C(O)=C2C3=O)c1 [K, (4S,4aS,5aR,12aS)-4-Dimethylamino-7-[3-(2-dimethylamino-acetylamino)-phenyl]-3,10,12,12a-tetrahydroxy-1,11-dioxo-1,4,4a,5,5a,6,11,12a-octahydro-naphthacene-2-carboxylic acid amide] | 2 (≈ 3.39 µM) | 0.06 (≈ 0.102 µM) | 0.06 (≈ 0.102 µM) | 2 (≈ 3.39 µM) | 2 (≈ 3.39 µM) | 1 (≈ 1.69 µM) | 64 (≈ 108 µM) | > 12.8 | > 12.8 | >128.09 | >128.09 | – | – | – | – | – | – | –
10 | COCCNC(=O)c1cccc(-c2ccc(O)c3c2C[C@H]2C[C@H]4[C@H](N(C)C)C(O)=C(C(N)=O)C(=O)[C@@]4(O)C(O)=C2C3=O)c1 [L] | 1 (≈ 1.69 µM) | 0.06 (≈ 0.101 µM) | 0.06 (≈ 0.101 µM) | 64 (≈ 108 µM) | 32 (≈ 54.1 µM) | 8 (≈ 13.5 µM) | 64 (≈ 108 µM) | > 15.1 | > 15.1 | >151.25 | >151.25 | – | – | – | – | – | – | –
11 | CNCCNC(=O)c1cccc(-c2ccc(O)c3c2C[C@H]2C[C@H]4[C@H](N(C)C)C(O)=C(C(N)=O)C(=O)[C@@]4(O)C(O)=C2C3=O)c1 [M] | 64 (≈ 108 µM) | 4 (≈ 6.77 µM) | 32 (≈ 54.2 µM) | 64 (≈ 108 µM) | 64 (≈ 108 µM) | 64 (≈ 108 µM) | 64 (≈ 108 µM) | > 143 | > 143 | >143.16 | >143.16 | – | – | – | – | – | – | –
12 | CN(C)[C@@H]1C(O)=C(C(N)=O)C(=O)[C@@]2(O)C(O)=C3C(=O)c4c(O)ccc(-c5cccc(C(=O)NCCN)c5)c4C[C@H]3C[C@@H]12 [N] | 64 (≈ 111 µM) | 2 (≈ 3.47 µM) | 16 (≈ 27.7 µM) | 64 (≈ 111 µM) | 64 (≈ 111 µM) | 64 (≈ 111 µM) | 64 (≈ 111 µM) | > 46.8 | > 46.8 | 95.14 | >150.87 | – | – | – | – | – | – | –
13 | CCN(CC)CCNC(=O)c1cccc(-c2ccc(O)c3c2C[C@H]2C[C@H]4[C@@H](N(C)C)C(O)=C(C(N)=O)C(=O)[C@@]4(O)C(O)=C2C3=O)c1 [O] | 64 (≈ 101 µM) | 4 (≈ 6.32 µM) | 4 (≈ 6.32 µM) | 64 (≈ 101 µM) | 64 (≈ 101 µM) | 64 (≈ 101 µM) | 64 (≈ 101 µM) | > 135 | > 135 | >134.63 | >134.63 | – | – | – | – | – | – | –
14 | CN(C)CCCNC(=O)c1cccc(-c2ccc(O)c3c2C[C@H]2C[C@H]4[C@@H](N(C)C)C(O)=C(C(N)=O)C(=O)[C@@]4(O)C(O)=C2C3=O)c1 [P] | 64 (≈ 103 µM) | 4 (≈ 6.47 µM) | 8 (≈ 12.9 µM) | 64 (≈ 103 µM) | 64 (≈ 103 µM) | 64 (≈ 103 µM) | 64 (≈ 103 µM) | > 123 | > 123 | >122.9 | >122.9 | – | – | – | – | – | – | –
15 | CN(C)CCN(C)C(=O)c1cccc(-c2ccc(O)c3c2C[C@H]2C[C@H]4[C@H](N(C)C)C(O)=C(C(N)=O)C(=O)[C@@]4(O)C(O)=C2C3=O)c1 [R] | 64 (≈ 103 µM) | 0.5 (≈ 0.808 µM) | 0.25 (≈ 0.404 µM) | – | – | – | – | > 137 | > 137 | >137.36 | >137.36 | – | – | – | 64 (≈ 103 µM) | 15 (≈ 24.2 µM) | 32 (≈ 51.7 µM) | 64 (≈ 103 µM)
